A short description of this data set: Adverse effects of daily treatment in tumor-bearing mice (weight, skin histology). Format: in vivo, hairless NMRI Nude mice.

Our source for the weight of mice values is patent US20260053731A1, “MICRONEEDLE PARTICLES FOR ENHANCED TOPICAL TRANSDERMAL DRUG DELIVERY” (BONSENS AB, priority 2023, published 2026).

Experimental: For hematoxylin/eosin staining (H&E), skin was isolated, immediately fixed in PFA (4% paraformaldehyde in PBS) overnight at room temperature, and then transferred to 70% ethanol prior to paraffin embedding and sectioning. Then, skin sections (8 μm) were stained with hematoxylin for 3 min after rehydration, rinsed for 10 min in running tap water and then stained for 1 min in eosin solution before being mounted on Fluoromount (DAKO). Whole slide pictures were taken by Olympus Slide View VS200 at Histological Core facility—HistoCore, Karolinska Institutet, Sweden, processed, and analyzed by OlyVIA software.
The mice were monitored for signs of discomfort (hunched posture, immobility, >10% weight loss) throughout the duration of the experiment as per ethics application.
In vivo experimentation was performed by inducing subcutaneous GTML2 tumors in mice through injecting a Tet-Off transgenic doxycycline-dependent murine cell line 40 into the flanks. […] Mice were monitored daily and were visualized with IVIS under tumor suspicion. […] Tumors were monitored and measured by IVIS imaging and by vernier calliper every week until the end of the experimentation. When measuring using a Vernier calliper, tumor volumes were calculated from the ellipsoid formula: V=4/3 πWLD. […]

For the molecule `C[C@H]1c2cccc(O)c2C(=O)C2=C(O)[C@]3(O)C(=O)C(C(N)=O)=C(O)[C@@H](N(C)C)[C@@H]3[C@@H](O)[C@@H]21` [Doxycycline, doxycycline], the weight of mice entry is “slower increase in their weight” (long term oral doxycycline in drinking water, compared to plain water control group) and “did not alter the weight of the mice” (topical skin treatment, 11 weeks).
